Where two headings read alike, the source gives them in different places.
Legend:
ERα [1] = target: T1, ERα (Homo sapiens, UniProt P03372); assay: Estrogen-responsive luciferase reporter transcriptional assay in T47DKBluc cells; format: cell-based; conditions: 1 nM E2, 24 h; for IC50: read-out: IC50 against ERα in the luciferase reporter-based transcriptional assay
T1 construct: endogenous in cells; host or cells: T47DKBluc (ATCC CRL-2865)
T1 sequence (P03372 1-595): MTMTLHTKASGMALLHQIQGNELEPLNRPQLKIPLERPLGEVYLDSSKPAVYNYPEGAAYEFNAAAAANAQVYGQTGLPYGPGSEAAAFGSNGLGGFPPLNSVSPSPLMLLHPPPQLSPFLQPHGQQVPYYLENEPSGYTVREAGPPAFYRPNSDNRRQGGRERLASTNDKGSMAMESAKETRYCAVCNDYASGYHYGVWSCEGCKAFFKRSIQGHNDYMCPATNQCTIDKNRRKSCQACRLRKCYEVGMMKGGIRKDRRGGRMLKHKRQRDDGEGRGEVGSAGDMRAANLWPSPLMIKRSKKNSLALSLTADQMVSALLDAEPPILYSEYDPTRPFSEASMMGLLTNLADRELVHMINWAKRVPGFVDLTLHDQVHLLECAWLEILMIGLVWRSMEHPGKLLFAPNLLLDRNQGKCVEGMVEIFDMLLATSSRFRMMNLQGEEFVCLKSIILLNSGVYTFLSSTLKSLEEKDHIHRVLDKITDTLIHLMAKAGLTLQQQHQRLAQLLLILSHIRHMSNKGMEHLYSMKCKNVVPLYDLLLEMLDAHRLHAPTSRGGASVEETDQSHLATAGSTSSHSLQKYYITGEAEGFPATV
Description: T47DKBluc cells (ATCC® CRL-2865^TM, Manassa, VA, USA) stably transfected with a 3X-ERE–promoter–luciferase reporter gene construct, pGL2.TATA.Inr.luc.neo [38], were used to measure inhibition of ERα-driven transcriptional activity of the luciferase reporter.
This assay was performed as described previously. Briefly, ERα-positive T47DKBluc cells were grown in phenol red-free RPMI 1640 supplemented with 10% CSS for 5 days. The cells were seeded on 96-well plates (2 × 10^4 cells/well). After 24 h, the cells were treated with test compounds in the presence of 1 nM E2. Twenty four hours post-treatment, the cells were lysed with 50 μL of 1× passive lysis buffer (Promega, Madison, WI, USA). Twenty microliters of the lysate from each treatment were transferred onto a white, 96-well, flat-bottomed plate (Corning Life Sciences, Corelle, NY, USA), and the luminescent signal was measured after adding 50 μL of the luciferase assay reagent (Promega, Madison, WI, USA) on a Tecan M200Pro microplate reader (Tecan, Menedorf, Switzerland). Differences in growth were normalised against total protein concentration, which was measured by the bicinchoninic acid (BCA) assay.

ERα LBD = target: T2, ERα LBD (Homo sapiens, UniProt P03372); assay: Biolayer interferometry (BLI) direct binding assay; conditions: biotinylated ERα LBD on streptavidin sensor, 3–100 μM
T2 construct: ERα LBD (amino acids 302–552) was cloned into the pAN4 AviTag™ Vector; made in house
T2 sequence (P03372 302-552): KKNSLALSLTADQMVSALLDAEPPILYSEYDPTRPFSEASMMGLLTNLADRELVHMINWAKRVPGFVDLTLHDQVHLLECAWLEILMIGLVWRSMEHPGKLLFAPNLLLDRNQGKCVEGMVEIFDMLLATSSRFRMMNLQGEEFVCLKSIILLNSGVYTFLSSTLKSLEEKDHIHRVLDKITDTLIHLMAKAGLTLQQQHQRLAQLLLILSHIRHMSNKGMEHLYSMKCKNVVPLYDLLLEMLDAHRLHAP
Description: The direct binding of small molecules to the ERα-LBD was quantified by BLI using an Octet RED apparatus (Pall ForteBio, Menlo Park, CA, USA). ERα LBD (amino acids 302–552) was cloned into the pAN4 AviTag™ Vector, (Avidity, Aurora, CO, USA). Biotinylated ERα-LBD was purified as described previously. Biotinylated protein (bERα LBD at 0.05 mg/mL) was bound to the super streptavidin sensors (Pall ForteBio) overnight at 4 °C in assay buffer (20 mM Tris, pH 7.5, 500 mM NaCl, 0.2 mM tris(2-carboxyethyl)phosphine TCEP, 0.02 mM E2, 5% glycerol and 5% dimethyl sulfoxide (DMSO). The compounds were dissolved in the assay buffer in a two-fold dilution series ranging from 3.1–100 μM. In all experiments, a known AF2-interacting peptide, PGC-1α (Elim Biopharmaceuticals, Hayward, CA, USA) was used as a control to confirm the functionality of the bERα LBD.

[2] = target: T3, ERα-LBD and FL-PGC1α peptide (Homo sapiens, UniProt P03372); assay: LanthaScreen TR-FRET ER Alpha coactivator displacement assay; format: biochemical; conditions: three-fold dilution range, dose-dependent
T3 construct: it was incubated with GST-tagged ERα-LBD (final concentration, 7.25 nM); purchased Life Technologies PV4544
T3 sequence (P03372 311-547 limits assumed): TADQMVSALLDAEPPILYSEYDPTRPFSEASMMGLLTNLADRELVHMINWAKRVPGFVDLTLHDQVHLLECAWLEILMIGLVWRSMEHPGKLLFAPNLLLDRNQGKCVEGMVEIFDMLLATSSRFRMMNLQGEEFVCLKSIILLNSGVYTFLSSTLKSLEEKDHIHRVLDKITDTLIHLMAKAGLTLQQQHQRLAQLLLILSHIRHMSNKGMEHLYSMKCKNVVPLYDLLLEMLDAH
Description: The LanthaScreen TR-FRET ER Alpha Coactivator Assay kit (PV4544; Life Technologies) was used as per the manufacturer’s instructions and described previously. To assess the binding of VPC-16464 to the AF2 site, it was incubated with GST-tagged ERα-LBD (final concentration, 7.25 nM) in the presence of a fluorescently-labelled co-activator peptide (fluorescein-PGC-1α) at a final concentration of 250 nM, terbium (Tb)-labelled anti-GST antibody (final concentration, 5 nM) and E2 (final concentration, EC80 […]). Cold SRC-2–3 and PGC-1α peptides were used as positive controls for AF2 site-specific binding. TR-FRET was analysed on a Synergy 4 hybrid microplate reader (BioTek, Winooski, VT, USA) with the settings at 340-nm excitation and 495- and 520-nm emission. The emission ratio (520:495) was analysed and plotted.

ERα [3] = target: T1, ERα; parameters: method as in PMID 25848700; conditions: estrogen-sensitive T47DKBluc cells; previously reported; read-out: IC50 of previously-reported template compound; cited from earlier work

`CC(=O)N(/N=C1\Sc2c(F)cccc2C1=O)c1ccccc1Cl` [VPC-16607] showed an IC50 (ERα [1]) of 2.9 µM.
For `CC(=O)N(/N=C1\Cc2ccccc2C1=O)c1ccccc1Cl` [VPC-16600], the “Direct binding to ERα LBD (BLI)” value (ERα LBD) was “abolished” and the “IC50 against ERα in the luciferase reporter-based transcriptional assay” value (ERα [1]) was “Inactive”.
In the case of `CC(=O)N(/N=C1\Sc2ccccc2C1=O)c1cccc(C)c1` [compound 16457], the IC50 (ERα [1]) is reported as 3.78 µM.
For `CC(=O)N(/N=C1\Sc2ccccc2C1=O)c1ccccc1Cl` [VPC-16464], the “Direct binding to ERα LBD (BLI)” value (ERα LBD) was “direct, reversible binding”, the “Displacement of FL-PGC1α peptide from ERα-LBD AF2 site (TR-FRET)” value [2] was “successfully displaced” and the IC50 (ERα [1]) was 2.7 µM.
`CC(=O)N(/N=C1\Sc2ccccc2C1=O)c1ccccc1F` [compound 16487] showed an IC50 (ERα [1]) of 4.64 µM.
With `CC(=O)N(/N=C1\Oc2ccccc2C1=O)c1ccccc1Cl` [VPC-16602] the “Direct binding to ERα LBD (BLI)” value (ERα LBD) was “abolished” and the “IC50 against ERα in the luciferase reporter-based transcriptional assay” value (ERα [1]) was “Inactive”.
For `CCOc1cc(Br)cc(/C=N/NC(=O)c2ccc3c(c2)OCCO3)c1O` [VPC-16230], the IC50 (ERα [3]) is given as 5.8 µM.
Work on `CC(=O)N(/N=C1\Sc2ccccc2C1=O)c1ccc(C)c(C)c1` [compound 16484] yielded an IC50 (ERα [1]) of 9.83 µM.
`CC(=O)N(/N=C1\Sc2ccccc2C1=O)c1ccc(C)cc1` [compound 16475] showed an IC50 (ERα [1]) of 12.3 µM.

Reference: publication PMC5855801, “Benzothiophenone Derivatives Targeting Mutant Forms of Estrogen Receptor-α in Hormone-Resistant Breast Cancers” (International Journal of Molecular Sciences, 2018)
